Measurements: the NIST ThermoML archive (doi:10.1016/j.jct.2004.12.004)

Assay: mn = molality of the nth substance listed, in mol/kg
Details: 350 kPa, Liquid, Extra sensitive DSC

OC[C@H]1O[C@@](CO)(O[C@H]2O[C@H](CO)[C@@H](O)[C@H](O)[C@H]2O)[C@@H](O)[C@@H]1O [D-sucrose] + O
Details | apparent molar heat capacity [J/K/mol]
278.15 K, m1 = 0.01461 | 532.5
278.15 K, m1 = 0.03048 | 533.5
278.15 K, m1 = 0.06172 | 533.8
278.15 K, m1 = 0.1302 | 535.7
278.15 K, m1 = 0.2486 | 538.6
278.15 K, m1 = 0.4969 | 544.2
278.15 K, m1 = 0.746 | 548.9
278.15 K, m1 = 0.9972 | 554.2
278.15 K, m1 = 1.489 | 560.3
278.15 K, m1 = 1.99 | 566.8
278.15 K, m1 = 2.99 | 577.9
278.15 K, m1 = 3.995 | 587.9
283.15 K, m1 = 0.01461 | 567.4
283.15 K, m1 = 0.03048 | 567.3
283.15 K, m1 = 0.06172 | 568.9
283.15 K, m1 = 0.1302 | 569.8
283.15 K, m1 = 0.2486 | 572
283.15 K, m1 = 0.4969 | 575.9
283.15 K, m1 = 0.746 | 579.3
283.15 K, m1 = 0.9972 | 583.7
283.15 K, m1 = 1.489 | 587.9
283.15 K, m1 = 1.99 | 593.1
283.15 K, m1 = 2.99 | 601.8
283.15 K, m1 = 3.995 | 610
288.15 K, m1 = 0.01461 | 596.7
288.15 K, m1 = 0.03048 | 596.6
288.15 K, m1 = 0.06172 | 597.7
288.15 K, m1 = 0.1302 | 598.1
288.15 K, m1 = 0.2486 | 599.7
288.15 K, m1 = 0.4969 | 602.4
288.15 K, m1 = 0.746 | 604.7
288.15 K, m1 = 0.9972 | 608.3
288.15 K, m1 = 1.489 | 611
288.15 K, m1 = 1.99 | 614.9
288.15 K, m1 = 2.99 | 621.5
288.15 K, m1 = 3.995 | 628.2
293.15 K, m1 = 0.01461 | 622
293.15 K, m1 = 0.03048 | 621.8
293.15 K, m1 = 0.06172 | 622.6
293.15 K, m1 = 0.1302 | 622.7
293.15 K, m1 = 0.2486 | 623.7
293.15 K, m1 = 0.4969 | 625.6
293.15 K, m1 = 0.746 | 627.1
293.15 K, m1 = 0.9972 | 629.8
293.15 K, m1 = 1.489 | 631.4
293.15 K, m1 = 1.99 | 634.1
293.15 K, m1 = 2.99 | 639
293.15 K, m1 = 3.995 | 644.5
298.15 K, m1 = 0.01461 | 642.1
298.15 K, m1 = 0.03048 | 642.9
298.15 K, m1 = 0.06172 | 644
298.15 K, m1 = 0.1302 | 643.9
298.15 K, m1 = 0.2486 | 644.7
298.15 K, m1 = 0.4969 | 646
298.15 K, m1 = 0.746 | 646.9
298.15 K, m1 = 0.9972 | 649.1
298.15 K, m1 = 1.489 | 649.6
298.15 K, m1 = 1.99 | 651.6
298.15 K, m1 = 2.99 | 655.2
298.15 K, m1 = 3.995 | 659.4
303.15 K, m1 = 0.01461 | 660.7
303.15 K, m1 = 0.03048 | 662.1
303.15 K, m1 = 0.06172 | 663
303.15 K, m1 = 0.1302 | 663.2
303.15 K, m1 = 0.2486 | 663.8
303.15 K, m1 = 0.4969 | 664.5
303.15 K, m1 = 0.746 | 665.1
303.15 K, m1 = 0.9972 | 666.8
303.15 K, m1 = 1.489 | 666.5
303.15 K, m1 = 1.99 | 667.8
303.15 K, m1 = 2.99 | 670.4
303.15 K, m1 = 3.995 | 673.5
308.15 K, m1 = 0.01461 | 679
308.15 K, m1 = 0.03048 | 679.1
308.15 K, m1 = 0.06172 | 680.3
308.15 K, m1 = 0.1302 | 680.3
308.15 K, m1 = 0.2486 | 680.6
308.15 K, m1 = 0.4969 | 680.9
308.15 K, m1 = 0.746 | 681.1
308.15 K, m1 = 0.9972 | 682.4
308.15 K, m1 = 1.489 | 681.8
308.15 K, m1 = 1.99 | 682.4
308.15 K, m1 = 2.99 | 683.9
308.15 K, m1 = 3.995 | 686.3
313.15 K, m1 = 0.01461 | 695.3
313.15 K, m1 = 0.03048 | 695.1
313.15 K, m1 = 0.06172 | 696.3
313.15 K, m1 = 0.1302 | 696.2
313.15 K, m1 = 0.2486 | 696.3
313.15 K, m1 = 0.4969 | 696.3
313.15 K, m1 = 0.746 | 696.2
313.15 K, m1 = 0.9972 | 697.3
313.15 K, m1 = 1.489 | 696.3
313.15 K, m1 = 1.99 | 696.4
313.15 K, m1 = 2.99 | 697.1
313.15 K, m1 = 3.995 | 698.8
318.15 K, m1 = 0.01461 | 709.1
318.15 K, m1 = 0.03048 | 709.4
318.15 K, m1 = 0.06172 | 710.4
318.15 K, m1 = 0.1302 | 710.3
318.15 K, m1 = 0.2486 | 710.3
318.15 K, m1 = 0.4969 | 710.1
318.15 K, m1 = 0.746 | 709.8
318.15 K, m1 = 0.9972 | 710.5
318.15 K, m1 = 1.489 | 709.1
318.15 K, m1 = 1.99 | 709.1
318.15 K, m1 = 2.99 | 709.1
318.15 K, m1 = 3.995 | 710.2
323.15 K, m1 = 0.01461 | 722.3
323.15 K, m1 = 0.03048 | 722.4
323.15 K, m1 = 0.06172 | 723.4
323.15 K, m1 = 0.1302 | 723.1
323.15 K, m1 = 0.2486 | 723
323.15 K, m1 = 0.4969 | 722.6
323.15 K, m1 = 0.746 | 722
323.15 K, m1 = 0.9972 | 722.7
323.15 K, m1 = 1.489 | 721
323.15 K, m1 = 1.99 | 720.7
323.15 K, m1 = 2.99 | 720.3
323.15 K, m1 = 3.995 | 720.8
328.15 K, m1 = 0.01461 | 735.7
328.15 K, m1 = 0.03048 | 735.3
328.15 K, m1 = 0.06172 | 735.9
328.15 K, m1 = 0.1302 | 735.3
328.15 K, m1 = 0.2486 | 735.1
328.15 K, m1 = 0.4969 | 734.6
328.15 K, m1 = 0.746 | 733.9
328.15 K, m1 = 0.9972 | 734.3
328.15 K, m1 = 1.489 | 732.5
328.15 K, m1 = 1.99 | 731.9
328.15 K, m1 = 2.99 | 730.9
328.15 K, m1 = 3.995 | 731.1
333.15 K, m1 = 0.01461 | 746.9
333.15 K, m1 = 0.03048 | 746.6
333.15 K, m1 = 0.06172 | 747
333.15 K, m1 = 0.1302 | 746.5
333.15 K, m1 = 0.2486 | 746.2
333.15 K, m1 = 0.4969 | 745.4
333.15 K, m1 = 0.746 | 744.6
333.15 K, m1 = 0.9972 | 745
333.15 K, m1 = 1.489 | 742.9
333.15 K, m1 = 1.99 | 742.1
333.15 K, m1 = 2.99 | 740.7
333.15 K, m1 = 3.995 | 740.5
338.15 K, m1 = 0.01461 | 756.6
338.15 K, m1 = 0.03048 | 757.3
338.15 K, m1 = 0.06172 | 757.4
338.15 K, m1 = 0.1302 | 756.8
338.15 K, m1 = 0.2486 | 756.4
338.15 K, m1 = 0.4969 | 755.6
338.15 K, m1 = 0.746 | 754.7
338.15 K, m1 = 0.9972 | 754.9
338.15 K, m1 = 1.489 | 752.7
338.15 K, m1 = 1.99 | 751.7
338.15 K, m1 = 2.99 | 750
338.15 K, m1 = 3.995 | 749.3
343.15 K, m1 = 0.01461 | 765.9
343.15 K, m1 = 0.03048 | 766.2
343.15 K, m1 = 0.06172 | 766.8
343.15 K, m1 = 0.1302 | 766.3
343.15 K, m1 = 0.2486 | 766
343.15 K, m1 = 0.4969 | 765.2
343.15 K, m1 = 0.746 | 764.2
343.15 K, m1 = 0.9972 | 764.2
343.15 K, m1 = 1.489 | 762
343.15 K, m1 = 1.99 | 760.8
343.15 K, m1 = 2.99 | 759
343.15 K, m1 = 3.995 | 758
348.15 K, m1 = 0.01461 | 774.3
348.15 K, m1 = 0.03048 | 775.2
348.15 K, m1 = 0.06172 | 775.7
348.15 K, m1 = 0.1302 | 775.1
348.15 K, m1 = 0.2486 | 774.7
348.15 K, m1 = 0.4969 | 774
348.15 K, m1 = 0.746 | 772.8
348.15 K, m1 = 0.9972 | 772.7
348.15 K, m1 = 1.489 | 770.4
348.15 K, m1 = 1.99 | 769.1
348.15 K, m1 = 2.99 | 767
348.15 K, m1 = 3.995 | 765.8
353.15 K, m1 = 0.01461 | 781.7
353.15 K, m1 = 0.03048 | 783.6
353.15 K, m1 = 0.06172 | 784
353.15 K, m1 = 0.1302 | 783.3
353.15 K, m1 = 0.2486 | 783
353.15 K, m1 = 0.4969 | 782.2
353.15 K, m1 = 0.746 | 780.9
353.15 K, m1 = 0.9972 | 780.7
353.15 K, m1 = 1.489 | 778.3
353.15 K, m1 = 1.99 | 777
353.15 K, m1 = 2.99 | 774.6
353.15 K, m1 = 3.995 | 773.2
358.15 K, m1 = 0.01461 | 791
358.15 K, m1 = 0.03048 | 791.1
358.15 K, m1 = 0.06172 | 791.9
358.15 K, m1 = 0.1302 | 791.1
358.15 K, m1 = 0.2486 | 790.6
358.15 K, m1 = 0.4969 | 789.8
358.15 K, m1 = 0.746 | 788.4
358.15 K, m1 = 0.9972 | 788.2
358.15 K, m1 = 1.489 | 785.7
358.15 K, m1 = 1.99 | 784.3
358.15 K, m1 = 2.99 | 781.7
358.15 K, m1 = 3.995 | 780
363.15 K, m1 = 0.01461 | 797.3
363.15 K, m1 = 0.03048 | 797.3
363.15 K, m1 = 0.06172 | 798
363.15 K, m1 = 0.1302 | 797.4
363.15 K, m1 = 0.2486 | 797.1
363.15 K, m1 = 0.4969 | 796.6
363.15 K, m1 = 0.746 | 795.1
363.15 K, m1 = 0.9972 | 794.7
363.15 K, m1 = 1.489 | 792.3
363.15 K, m1 = 1.99 | 790.9
363.15 K, m1 = 2.99 | 788.1
363.15 K, m1 = 3.995 | 786.3
